Patent US20200216441A1, “PESTICIDALLY ACTIVE HETEROCYCLIC DERIVATIVES WITH SULFUR CONTAINING SUBSTITUENTS” (SYNGENTA PARTICIPATIONS AG, priority 2017, published 2020)

Columns and labels:
[1] = tested on: Diabrotica Balteata (Corn Root Worm); assay: Diabrotica balteata (Corn Root Worm); conditions: in Zea mays, 96 h, read-out: effect in at least one of the two categories (mortality or growth inhibition)
[2] = tested on: Euschistus heros (Neotropical Brown Stink Bug); assay: whole plant or invertebrate; type: in vivo; conditions: 120 h, application rate of 200 ppm, N2 nymphs on sprayed soybean leaves, 5 days after infestation, read-out: effect in at least one of the two categories (mortality or growth inhibition)
[3] = tested on: Bemisia tabaci (Cotton White Fly); conditions: in Gossypium hirsutum, foliar, 144 h
[4] = tested on: Myzus persicae (Green Peach Aphid); assay: whole plant or invertebrate; conditions: foliar, 144 h
[5] = tested on: Tetranychus urticae (Two-Spotted Spider Mite); conditions: foliar, 192 h
[6] = tested on: Plutella xylostella (Diamond Back Moth); assay: whole plant or invertebrate; type: in vivo; conditions: 120 h, application rate of 200 ppm, L2 larvae on treated artificial diet, 5 days after infestation, read-out: effect in at least one of the two categories (mortality or growth inhibition)
[7] = tested on: Spodoptera littoralis (Egyptian Cotton Leaf Worm); assay: whole plant or invertebrate; conditions: in Gossypium barbadense, foliar, 72 h, read-out: control (mortality, anti-feeding effect, growth inhibition)
[8] = tested on: Myzus persicae (Green Peach Aphid); assay: whole plant or invertebrate; type: in vivo; conditions: 144 h, test rate of 24 ppm, systemic, roots of infested pea seedlings in test solution, 6 days

CCS(=O)(=O)c1cc(OC2CCC2)cnc1-c1nc2cc(C(F)(F)F)ncc2n1C [Compound P62, 2-[5-(cyclobutoxy)-3-ethylsulfonyl-2-pyridyl]-3-methyl-6-(trifluoromethyl)imidazo[4,5-c]pyridine]
≥ 80%: mortality at 200 ppm [1] | percent effect (mortality or growth inhibition) at 200 ppm [2] | mortality at 200 ppm [3] | mortality at 200 ppm [4] | mortality at 200 ppm [5] | percent effect (mortality or growth inhibition) at 200 ppm [6] | mortality at 200 ppm [7]

CCS(=O)(=O)c1cc(OC(C)(C)CC#N)cnc1-c1nc2cc(C(F)(F)F)ncc2n1C [Compound P47, 3-[[5-ethylsulfonyl-6-[3-methyl-6-(trifluoromethyl)imidazo[4,5-c]pyridin-2-yl]-3-pyridyl]oxy]-3-methyl-butanenitrile]
≥ 80%: mortality at 200 ppm [1] | percent effect (mortality or growth inhibition) at 200 ppm [2] | mortality at 200 ppm [3] | mortality at 200 ppm [4] | mortality at 24 ppm [8] | mortality at 200 ppm [5] | percent effect (mortality or growth inhibition) at 200 ppm [6]

CCS(=O)(=O)c1cc(OCCSC)ccc1-c1nc2cc(C(F)(F)F)ncc2n1C [Compound P104, 2-[2-ethylsulfonyl-4-(2-methylsulfanylethoxy)phenyl]-3-methyl-6-(trifluoromethyl)imidazo[4,5-c]pyridine]
≥ 80%: mortality at 200 ppm [1] | percent effect (mortality or growth inhibition) at 200 ppm [2] | mortality at 200 ppm [3] | mortality at 200 ppm [4] | mortality at 24 ppm [8] | mortality at 200 ppm [5]

CCS(=O)(=O)c1cc(OC(C)C)cnc1-c1nc2cc([S+]([O-])C(F)F)ncc2n1C (centres unmarked) [Compound P87, 6-(difluoromethylsulfinyl)-2-(3-ethylsulfonyl-5-isopropoxy-2-pyridyl)-3-methyl-imidazo[4,5-c]pyridine]
≥ 80%: percent effect (mortality or growth inhibition) at 200 ppm [2] | mortality at 200 ppm [4] | mortality at 24 ppm [8] | mortality at 200 ppm [5] | percent effect (mortality or growth inhibition) at 200 ppm [6] | mortality at 200 ppm [7]

CCS(=O)(=O)c1cc(OC(C)C)cnc1-c1nc2cc(S(=O)(=O)C(F)(F)F)ncc2n1C [Compound P72, 2-(3-ethylsulfonyl-5-isopropoxy-2-pyridyl)-3-methyl-6-(trifluoromethylsulfonyl)imidazo[4,5-c]pyridine]
≥ 80%: mortality at 200 ppm [1] | percent effect (mortality or growth inhibition) at 200 ppm [2] | mortality at 200 ppm [3] | mortality at 200 ppm [4] | mortality at 24 ppm [8] | percent effect (mortality or growth inhibition) at 200 ppm [6] | mortality at 200 ppm [7]

CCS(=O)(=O)c1cc(OC2CC(F)(F)C2)cnc1-c1nc2cc(C(F)(F)F)ncc2n1C [Compound P42, 2-[5-(3,3-difluorocyclobutoxy)-3-ethylsulfonyl-2-pyridyl]-3-methyl-6-(trifluoromethyl)imidazo[4,5-c]pyridine]
≥ 80%: mortality at 200 ppm [1] | percent effect (mortality or growth inhibition) at 200 ppm [2] | mortality at 200 ppm [3] | mortality at 200 ppm [4] | mortality at 24 ppm [8] | percent effect (mortality or growth inhibition) at 200 ppm [6] | mortality at 200 ppm [7]

CCS(=O)(=O)c1cc(OC(C)C)cnc1-c1nc2cc(S(=O)(=O)C(F)F)ncc2n1C [Compound P88, 6-(difluoromethylsulfonyl)-2-(3-ethylsulfonyl-5-isopropoxy-2-pyridyl)-3-methyl-imidazo[4,5-c]pyridine]
≥ 80%: percent effect (mortality or growth inhibition) at 200 ppm [2] | mortality at 200 ppm [4] | mortality at 24 ppm [8] | mortality at 200 ppm [5] | percent effect (mortality or growth inhibition) at 200 ppm [6] | mortality at 200 ppm [7]

CCS(=O)(=O)c1cc(OCC2(C#N)CC2)ccc1-c1nc2cc(C(F)(F)F)ncc2n1C [Compound P101, 1-[[3-ethylsulfonyl-4-[3-methyl-6-(trifluoromethyl)imidazo[4,5-c]pyridin-2-yl]phenoxy]methyl]cyclopropanecarbonitrile]
≥ 80%: mortality at 200 ppm [1] | percent effect (mortality or growth inhibition) at 200 ppm [2] | mortality at 200 ppm [3] | mortality at 200 ppm [4] | mortality at 24 ppm [8] | percent effect (mortality or growth inhibition) at 200 ppm [6] | mortality at 200 ppm [7]

CCS(=O)(=O)c1cc(OC(C)C)cnc1-c1nc2cc(SC(F)(F)F)ncc2n1C [Compound P71, 2-(3-ethylsulfonyl-5-isopropoxy-2-pyridyl)-3-methyl-6-(trifluoromethylsulfanyl)imidazo[4,5-c]pyridine]
≥ 80%: mortality at 200 ppm [1] | percent effect (mortality or growth inhibition) at 200 ppm [2] | mortality at 200 ppm [3] | mortality at 200 ppm [4] | mortality at 200 ppm [5] | percent effect (mortality or growth inhibition) at 200 ppm [6] | mortality at 200 ppm [7]

CCS(=O)(=O)c1cc(OC(C)F)cnc1-c1nc2cc(C(F)(F)F)ncc2n1C (centres unmarked) [Compound P40, 2-[3-ethylsulfonyl-5-(1-fluoroethoxy)-2-pyridyl]-3-methyl-6-(trifluoromethyl)imidazo[4,5-c]pyridine]
≥ 80%: mortality at 200 ppm [1] | percent effect (mortality or growth inhibition) at 200 ppm [2] | mortality at 200 ppm [3] | mortality at 200 ppm [4] | mortality at 24 ppm [8] | percent effect (mortality or growth inhibition) at 200 ppm [6] | mortality at 200 ppm [7]

CCS(=O)(=O)c1cc(OC(CF)CF)ccc1-c1nc2cc(C(F)(F)F)ncc2n1C [Compound P100, 2-[2-ethylsulfonyl-4-[2-fluoro-1-(fluoromethyl)ethoxy]phenyl]-3-methyl-6-(trifluoromethyl)imidazo[4,5-c]pyridine]
≥ 80%: mortality at 200 ppm [1] | percent effect (mortality or growth inhibition) at 200 ppm [2] | mortality at 200 ppm [3] | mortality at 200 ppm [4] | mortality at 24 ppm [8] | percent effect (mortality or growth inhibition) at 200 ppm [6] | mortality at 200 ppm [7]

CCS(=O)(=O)c1cc(OCC(F)F)cnc1-c1nc2cc(C(F)(F)F)ncc2n1C [Compound P16, 2-[5-(2,2-difluoroethoxy)-3-ethylsulfonyl-2-pyridyl]-3-methyl-6-(trifluoromethyl)imidazo[4,5-c]pyridine]
≥ 80%: mortality at 200 ppm [1] | percent effect (mortality or growth inhibition) at 200 ppm [2] | mortality at 200 ppm [3] | mortality at 200 ppm [4] | mortality at 24 ppm [8] | percent effect (mortality or growth inhibition) at 200 ppm [6] | mortality at 200 ppm [7]

CCS(=O)(=O)c1cc(OC(C)(C)CF)cnc1-c1nc2cc(C(F)(F)F)ncc2n1C [Compound P30, 2-[3-ethylsulfonyl-5-(2-fluoro-1,1-dimethyl-ethoxy)-2-pyridyl]-3-methyl-6-(trifluoromethyl)imidazo[4,5-c]pyridine]
≥ 80%: mortality at 200 ppm [1] | percent effect (mortality or growth inhibition) at 200 ppm [2] | mortality at 200 ppm [3] | mortality at 200 ppm [4] | mortality at 24 ppm [8] | percent effect (mortality or growth inhibition) at 200 ppm [6] | mortality at 200 ppm [7]

CCS(=O)(=O)c1cc(OC(C)(C)C(F)(F)F)cnc1-c1nc2cc(C(F)(F)F)ncc2n1C [Compound P76, 2-[3-ethylsulfonyl-5-(2,2,2-trifluoro-1,1-dimethyl-ethoxy)-2-pyridyl]-3-methyl-6-(trifluoromethyl)imidazo[4,5-c]pyridine]
≥ 80%: mortality at 200 ppm [1] | percent effect (mortality or growth inhibition) at 200 ppm [2] | mortality at 200 ppm [3] | mortality at 200 ppm [4] | mortality at 200 ppm [5] | percent effect (mortality or growth inhibition) at 200 ppm [6] | mortality at 200 ppm [7]
